Measured values from patent US6391327B1, “Pesticidal composition” (priority 1998, dated 2002).
Where two headings read alike, the source gives them in different places.

Legend:
[1] = test system: housefly (Musca domestica) which is resistant to pyrethroid; assay type: in vivo; details: topical, 2 days later, average of 3
Description: One half (0.5)μL of the following acetone dissolving solution wherein the concentration was adjusted to set forth a dosage given below, was applied to the back thoracic region of a housefly (Musca domestica) which is resistant to pyrethroid and the mortality was examined 2 days later.

[2] = test system: Formosan subterranean termites (Coptotermes formosanus); test: Soil tunneling test in glass tube with Formosan subterranean termites; assay type: in vivo; details: concentration of application 20 ppm, a week later, three repeats
Procedure: Three (3) cm of soil was packed into the central inner portion of a glass tube that has an inner diameter of 1.7 cm and is 15 cm long, and on one surface of the soil, 0.7 mL of each aqueous solution that has the examined compound formulated to a determined dilution (examined compound and applied concentration given in table 3). Subsequently, 4% agar was inserted onto both surfaces of the soil, 50 worker Formosan subterranean termites (Coptotermes formosanus) and 5 soldier Formosan subterranean termites were deposited into side of the inner part of the tube wherein no compound was applied, and the tunneled soil condition by the termites was examined a week later. The example was repeated thrice.
Within the results of table 3, A represents a condition wherein the termites tunneled through the surface of the soil of the treated side and the non-treated side, B represents a condition wherein the surface of the soil of the treated side was tunneled through and the agar was tunneled halfway, C represents a condition wherein the surface of the soil of the treated side was incompletely tunneled through and the agar had no visible tunneling.

Row | SMILES | mortality (%) ([1]; dosage 1.25 μg per insect) | mortality (%) ([1]; dosage 2.5 μg per insect) | mortality (%) ([1]; dosage 5 μg per insect) | results (tunneled soil condition by the termites) [2] | mortality (%) ([1]; dosage 10 μg per insect) | mortality (%) ([1]; dosage 0.625 μg per insect)
1 | C#CCC1=C(C)C(OC(=O)C2C(C=C(C)C)C2(C)C)CC1=O (mixture of isomers) [Prallethrin, (S)-2-methyl-4-oxo-3-prop-2-ynylcyclopent-2-enyl (1R)-cis,trans-2,2-dimethyl-3-(2-methylprop-1-enyl)cyclopropanecarboxylate] | 6.7% | 10% | 30% | – | – | –
2 | CN1COCN(Cc2cnc(Cl)s2)C1=N[N+](=O)[O-] [Compound D, 3-[(2-chloro-5-thiazolyl)methyl]-5-methyl-4-nitroiminotetrahydro-1,3,5-oxadiazine] | – | – | – | AAA | – | –
3 | C/C(=N\C#N)N(C)Cc1ccc(Cl)nc1 [Compound A, (E)-N^1-[(6-chloro-3-pyridyl)methyl]-N^2-cyano-N^1-methylacetamidine] | 15% | – | 15% | – | 5% | –
4 | CNC(=N[N+](=O)[O-])NCC1CCOC1 (stereo not shown) [Compound B, 1-(tetrahydrofuran-3-yl)methyl-3-methyl-2-nitroguanidine] | 45% | – | – | ACA | – | 10%
